According to US7253286B2, “Nitrogen-containing aromatic derivatives” (Eisai Co., Ltd, priority 2000, dated 2007):

System: Human Umbilical Vein Endothelial Cells (HUVECs)
Test: Inhibition against invasive tube formation by vascular endothelial cells in response to stimulation by angiogenic factor mixture
Assay type: cell-based
Design: key: the number of tubes formed in the absence of the test substance was designated as +++; scored on the 5-level scale of +++, ++, +, +/−, −; scored on the 5-level scale of +++, ++, +, +/−, −; scored on the 5-level scale of +++, ++, +, +/−, −; − was assigned if absolutely no tubes formed
Details: HUVEC on fibrin gel, EGF/FGF2/VEGF/HGF/TNF-α mixture, 6th day, MTT staining; for number of tubes formed in the fibrin gel (score) at 0.01 μM: test substance 0.01 μM; for number of tubes formed in the fibrin gel (score) at 0.1 μM: test substance 0.1 μM; for number of tubes formed in the fibrin gel (score) at 1.0 μM: test substance 1.0 μM
Procedure: Inhibition Against Invasive Tube Formation by Vascular Endothelial Cells in Response to Stimulation by Angiogenic Factor Mixture
Human Umbilical Vein Endothelial Cells (HUVECs) were isolated according to a reported method (Shinseikagaku Jikken Koza [New Biochemistry Experiment Lectures], “Saibo Baiyo Gijutsu” [Cell Culturing Techniques], p.197–202), and were cultured in a 5% CO2 incubator (37° C.) using EGM-2 medium (purchased from Clonetics Corp.) until the cells reached confluency. After adding 0.4 ml of bovine fibrinogen (purchased from Sigma Co.) to the inner well of a Transwell culturing plate (purchased from Coster Inc.), it was hardened with 0.7 units/ml of thrombin (purchased from Sigma Co.). The HUVECs were recovered using trypsin-EDTA and then suspended in human endothelial serum free medium basal growth medium (hereinafter abbreviated as SFM, purchased from GIBCO BRL), and 0.4 ml of the cell suspension (1.4×10^5 cells) was seeded onto the hardened fibrin gel and cultured for approximately 4 hours in a 5% CO2 incubator (37° C.). After 4 hours, there was added to the outer chamber of the Transwell 1.5 ml of an SFM solution containing a mixture of angiogenic factors {10 ng/ml EGF (purchased from GIBCO BRL), 30 ng/ml FGF2 (purchased from GIBCO BRL), 75 ng/ml VEGF (purchased from Wako Pure Chemical Industries Co., Ltd.), 50 ng/ml HGF (purchased from R&D Co.) and 7.5 ng/ml TNF-α (purchased from Genzyme Corp.) [The concentrations of the angiogenic factors differed slightly according to the HUVEC lot.]} and a diluted test substance, and culturing was carried out in a 5% CO2 incubator (37° C.). On the 2nd and 4th days after adding the test substance, the medium was exchanged with 1.5 ml of freshly prepared SFM solution containing the angiogenic factor mixture and test substance. Upon aspirating off the culture supernatant in the inner well on the 6th day after the initial addition of the test substance, 0.4 ml of a 3.3 mg/ml MTT solution dissolved in PBS (purchased from Sigma Corp.) was added and culturing was performed for approximately 1 hour in a 5% CO2 incubator (37° C.). The number of tubes formed in the fibrin gel stained with MTT was scored based on microscope observation. Specifically, the number of tubes formed in the absence of the test substance was designated as +++, while − was assigned if absolutely no tubes formed. The number of tubes formed in the presence of the test substance was scored on the 5-level scale of +++, ++, +, +/−, − to evaluate the strength of inhibition of the test substance.

For N#CCCCOc1cc2nccc(Oc3ccc(NC(=O)Nc4ccc(F)cc4F)c(F)c3)c2cc1C#N [Example 55, N-(4-(6-Cyano-7-(3-cyanopropoxy)-4-quinolyl)oxy-2-fluorophenyl)-N′-(2,4-difluorophenyl)urea], which “number of tubes formed in the fibrin gel (score) at 0.01 μM” value (“number of tubes formed … at 0.01 μM” for short) is on record?
Its value is “+++”.

And the “number of tubes formed in the fibrin gel (score) at 0.1 μM” value (from here on “number of tubes formed … at 0.1 μM”)?
Its value is “+/−”.

What about the “number of tubes formed in the fibrin gel (score) at 1.0 μM” value (“number of tubes formed … at 1.0 μM” for short) of the same compound?
Its value is “+/−”.

How did the “number of tubes formed … at 0.01 μM” value turn out when COCCOc1cc2nccc(Oc3ccc(NC(=O)Nc4ccc(F)cc4)c(F)c3)c2cc1C#N [Example 100, N-(4-(6-Cyano-7-(2-methoxyethoxy)-4-quinolyl)oxy-2-fluorophenyl)-N′-(4-fluorophenyl)urea] was run?
Its value is “++”.

What about the “number of tubes formed … at 0.1 μM” value of the same compound?
Its value is “+/−”.

And the “number of tubes formed … at 1.0 μM” value?
The value was “+/−”.

With CCNC(=O)n1ccc2cc(Oc3ccnc4cc(OC)c(C(N)=O)cc34)ccc21 [Example 316, 6-Carbamoyl-4-(1-ethylcarbamoyl-1H-indol-5-yloxy)-7-methoxyquinoline] as the compound, how does the “number of tubes formed … at 0.01 μM” value read?
The value was “+/−”.

And the “number of tubes formed … at 0.1 μM” value?
Its value is “−”.

What about the “number of tubes formed … at 1.0 μM” value of the same compound?
The value was “−”.

With NC(=O)c1cc2c(Oc3ccc(NC(=O)NC4CC4)c(F)c3)ccnc2cc1OCCCN1CCOCC1 [Example 374, 4-(4-(Cyclopropylaminocarbonyl)amino-3-fluorophenoxy)-7-(3-(4-morpholino)propoxy)-6-quinolinecarboxamide] as the compound, how does the “number of tubes formed … at 0.01 μM” value read?
Its value is “+/−”.

And the “number of tubes formed … at 0.1 μM” value?
Its value is “−”.

And the “number of tubes formed … at 1.0 μM” value?
Its value is “−”.

With COc1cc2nccc(Oc3ccc(NC(=O)NC4CC4)c(Cl)c3)c2cc1C(=O)NCCS(C)(=O)=O [Example 404, N6-(2-(Methylsulfonyl)ethyl)-4-(3-chloro-4-(((cyclopropylamino)carbonyl)amino)phenoxy)-7-methoxy-6-quinolinecarboxamide] as the compound, how does the “number of tubes formed … at 0.01 μM” value read?
Its value is “−”.

And the “number of tubes formed … at 0.1 μM” value?
Its value is “−”.

And the “number of tubes formed … at 1.0 μM” value?
The value was “−”.
